Source: PubChem BioAssay AID2060905 (Molecular Pharmacology Branch, DTP, NCI, 2025)

Tested on: 282377-053-R-J1-PDC complex spheroid viability
Assay: Anticancer human tumor 282377-053-R-J1-PDC patient-derived colon adenocarcinoma cell line growth inhibition [RAS]
Conditions: for IC50: curve of first compound; for viability, T/C: stronger effect = lower value
Outline: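 Agents were tested in combination matrices in half-log decrements from a top concentration at or near clinical Cmax (10 microM if undetermined). Targets were multi-cell spheroids of tumour lines plus HUVEC and MSC stromal cells.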
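Note: spheroids exposed to agents for seven days before readout.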
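Throughout, for viability, T/C: luminescence viability as percent of DMSO vehicle control wells.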

## CCC(CC)c1cc(NC2CCC(N)C2)n2nccc2n1 (configuration not stated) + C=CC(=O)N1CCN(c2nc(OCC3CCCN3C)nc3c(F)c(-c4nc(N)cc(C)c4C(F)(F)F)c(Cl)cc23)C(C)C1
Second compound 0.00316 µM
  IC50: 1940 nM
Second compound 0.01 µM
  IC50: 1900 nM
Second compound 0.0316 µM
  IC50: 1820 nM
Second compound 0.1 µM
  IC50: 1690 nM
Second compound 0.316 µM
  IC50: 1860 nM
Second compound 1 µM
  IC50: 1890 nM
Second compound 0.00316 µM, first compound 0.0316 µM
  viability, T/C: 117%
Second compound 0.00316 µM, first compound 0.1 µM
  viability, T/C: 101%
Second compound 0.00316 µM, first compound 0.316 µM
  viability, T/C: 93.8%
Second compound 0.00316 µM, first compound 1 µM
  viability, T/C: 116%
Second compound 0.00316 µM, first compound 3.16 µM
  viability, T/C: 7.62%
Second compound 0.00316 µM, first compound 10 µM
  viability, T/C: 2.24%
Second compound 0.01 µM, first compound 0.0316 µM
  viability, T/C: 110%
Second compound 0.01 µM, first compound 0.1 µM
  viability, T/C: 98.1%
Second compound 0.01 µM, first compound 0.316 µM
  viability, T/C: 92%
Second compound 0.01 µM, first compound 1 µM
  viability, T/C: 115%
Second compound 0.01 µM, first compound 3.16 µM
  viability, T/C: 7.28%
Second compound 0.01 µM, first compound 10 µM
  viability, T/C: 1.55%
Second compound 0.0316 µM, first compound 0.0316 µM
  viability, T/C: 103%
Second compound 0.0316 µM, first compound 0.1 µM
  viability, T/C: 97%
Second compound 0.0316 µM, first compound 0.316 µM
  viability, T/C: 96.3%
Second compound 0.0316 µM, first compound 1 µM
  viability, T/C: 94.5%
Second compound 0.0316 µM, first compound 3.16 µM
  viability, T/C: 8.89%
Second compound 0.0316 µM, first compound 10 µM
  viability, T/C: 1.69%
Second compound 0.1 µM, first compound 0.0316 µM
  viability, T/C: 124%
Second compound 0.1 µM, first compound 0.1 µM
  viability, T/C: 107%
Second compound 0.1 µM, first compound 0.316 µM
  viability, T/C: 113%
Second compound 0.1 µM, first compound 1 µM
  viability, T/C: 85.3%
Second compound 0.1 µM, first compound 3.16 µM
  viability, T/C: 7.78%
Second compound 0.1 µM, first compound 10 µM
  viability, T/C: 1.54%
Second compound 0.316 µM, first compound 0.0316 µM
  viability, T/C: 111%
Second compound 0.316 µM, first compound 0.1 µM
  viability, T/C: 105%
Second compound 0.316 µM, first compound 0.316 µM
  viability, T/C: 109%
Second compound 0.316 µM, first compound 1 µM
  viability, T/C: 100%
Second compound 0.316 µM, first compound 3.16 µM
  viability, T/C: 7.41%
Second compound 0.316 µM, first compound 10 µM
  viability, T/C: 1.9%
Second compound 1 µM, first compound 0.0316 µM
  viability, T/C: 109%
Second compound 1 µM, first compound 0.1 µM
  viability, T/C: 103%
Second compound 1 µM, first compound 0.316 µM
  viability, T/C: 123%
Second compound 1 µM, first compound 1 µM
  viability, T/C: 102%
Second compound 1 µM, first compound 3.16 µM
  viability, T/C: 7.89%
Second compound 1 µM, first compound 10 µM
  viability, T/C: 2.25%
